Measured values reported in ChEMBL document CHEMBL6120977, “Structure-Affinity-Pharmacokinetics Relationships of Novel 18F-Labeled 1,4-Diazepane Derivatives for Orexin 1 Receptor Imaging” (J Med Chem, 2024).
pKi: −log10 of the molar value.

Key:
[1] = Biodistribution in male ddY mouse blood administered intravenously and measured at 10 mins postinjection by gamma counter analysis; assay type: ADME, organism-based; settings: in vivo, iv
[2] = Biodistribution in male ddY mouse lung administered intravenously and measured at 30 mins postinjection by gamma counter analysis; assay type: ADME, organism-based; settings: in vivo, iv, 0.5 h
[3] = Biodistribution in male ddY mouse brain administered intravenously and measured at 30 mins postinjection by gamma counter analysis; assay type: ADME, organism-based; settings: in vivo, iv, 0.5 h
[4] = Biodistribution in male ddY mouse bone administered intravenously and measured at 60 mins postinjection by gamma counter analysis; assay type: ADME, organism-based, Bone element; settings: in vivo, iv, 1 h
[5] = Biodistribution in male ddY mouse blood administered intravenously and measured at 2 mins postinjection by gamma counter analysis; assay type: ADME, organism-based; settings: in vivo, iv
[6] = Biodistribution in male ddY mouse heart administered intravenously and measured at 10 mins postinjection by gamma counter analysis; assay type: ADME, organism-based; settings: in vivo, iv
[7] = Biodistribution in male ddY mouse pancreas administered intravenously and measured at 2 mins postinjection by gamma counter analysis; assay type: ADME, organism-based; settings: in vivo, iv
[8] = Biodistribution in male ddY mouse intestine administered intravenously and measured at 30 mins postinjection by gamma counter analysis; assay type: ADME, organism-based; settings: in vivo, iv, 0.5 h
[9] = Biodistribution in male ddY mouse brain administered intravenously and measured at 60 mins postinjection by gamma counter analysis; assay type: ADME, organism-based; settings: in vivo, iv, 1 h
[10] = Biodistribution in male ddY mouse pancreas administered intravenously and measured at 60 mins postinjection by gamma counter analysis; assay type: ADME, organism-based; settings: in vivo, iv, 1 h
[11] = Biodistribution in male ddY mouse spleen administered intravenously and measured at 60 mins postinjection by gamma counter analysis; assay type: ADME, organism-based; settings: in vivo, iv, 1 h
[12] = Biodistribution in male ddY mouse stomach administered intravenously and measured per organ at 30 mins postinjection by gamma counter analysis; assay type: ADME, organism-based; settings: in vivo, iv, 0.5 h
[13] = Biodistribution in male ddY mouse blood administered intravenously and measured at 60 mins postinjection by gamma counter analysis; assay type: ADME, organism-based; settings: in vivo, iv, 1 h
[14] = Biodistribution in male ddY mouse intestine administered intravenously and measured at 60 mins postinjection by gamma counter analysis; assay type: ADME, organism-based; settings: in vivo, iv, 1 h
[15] = Biodistribution in male ddY mouse heart administered intravenously and measured at 30 mins postinjection by gamma counter analysis; assay type: ADME, organism-based; settings: in vivo, iv, 0.5 h
[16] = Biodistribution in male ddY mouse heart administered intravenously and measured at 2 mins postinjection by gamma counter analysis; assay type: ADME, organism-based; settings: in vivo, iv
[17] = Biodistribution in male ddY mouse liver administered intravenously and measured at 60 mins postinjection by gamma counter analysis; assay type: ADME, organism-based; settings: in vivo, iv, 1 h
[18] = Biodistribution in male ddY mouse kidney administered intravenously and measured at 2 mins postinjection by gamma counter analysis; assay type: ADME, organism-based; settings: in vivo, iv
[19] = Biodistribution in male ddY mouse kidney administered intravenously and measured at 30 mins postinjection by gamma counter analysis; assay type: ADME, organism-based; settings: in vivo, iv, 0.5 h
[20] = Biodistribution in male ddY mouse brain administered intravenously and measured at 10 mins postinjection by gamma counter analysis; assay type: ADME, organism-based; settings: in vivo, iv
[21] = Biodistribution in male ddY mouse stomach administered intravenously and measured per organ at 2 mins postinjection by gamma counter analysis; assay type: ADME, organism-based; settings: in vivo, iv
[22] = Biodistribution in male ddY mouse intestine administered intravenously and measured at 10 mins postinjection by gamma counter analysis; assay type: ADME, organism-based; settings: in vivo, iv
[23] = Biodistribution in male ddY mouse brain administered intravenously and measured at 2 mins postinjection by gamma counter analysis; assay type: ADME, organism-based; settings: in vivo, iv
[24] = Biodistribution in male ddY mouse spleen administered intravenously and measured at 2 mins postinjection by gamma counter analysis; assay type: ADME, organism-based; settings: in vivo, iv
[25] = Biodistribution in male ddY mouse lung administered intravenously and measured at 10 mins postinjection by gamma counter analysis; assay type: ADME, organism-based; settings: in vivo, iv
[26] = Biodistribution in male ddY mouse kidney administered intravenously and measured at 10 mins postinjection by gamma counter analysis; assay type: ADME, organism-based; settings: in vivo, iv
[27] = Biodistribution in male ddY mouse pancreas administered intravenously and measured at 30 mins postinjection by gamma counter analysis; assay type: ADME, organism-based; settings: in vivo, iv, 0.5 h
[28] = Biodistribution in male ddY mouse stomach administered intravenously and measured per organ at 10 mins postinjection by gamma counter analysis; assay type: ADME, organism-based; settings: in vivo, iv
[29] = Biodistribution in male ddY mouse stomach administered intravenously and measured per organ at 60 mins postinjection by gamma counter analysis; assay type: ADME, organism-based; settings: in vivo, iv, 1 h
[30] = Biodistribution in male ddY mouse pancreas administered intravenously and measured at 10 mins postinjection by gamma counter analysis; assay type: ADME, organism-based; settings: in vivo, iv
[31] = Biodistribution in male ddY mouse spleen administered intravenously and measured at 30 mins postinjection by gamma counter analysis; assay type: ADME, organism-based; settings: in vivo, iv, 0.5 h
[32] = Biodistribution in male ddY mouse kidney administered intravenously and measured at 60 mins postinjection by gamma counter analysis; assay type: ADME, organism-based; settings: in vivo, iv, 1 h
[33] = Biodistribution in male ddY mouse liver administered intravenously and measured at 30 mins postinjection by gamma counter analysis; assay type: ADME, organism-based; settings: in vivo, iv, 0.5 h
[34] = Biodistribution in male ddY mouse bone administered intravenously and measured at 30 mins postinjection by gamma counter analysis; assay type: ADME, organism-based, Bone element; settings: in vivo, iv, 0.5 h
[35] = Biodistribution in male ddY mouse intestine administered intravenously and measured at 2 mins postinjection by gamma counter analysis; assay type: ADME, organism-based; settings: in vivo, iv
[36] = Biodistribution in male ddY mouse lung administered intravenously and measured at 2 mins postinjection by gamma counter analysis; assay type: ADME, organism-based; settings: in vivo, iv
[37] = Biodistribution in male ddY mouse spleen administered intravenously and measured at 10 mins postinjection by gamma counter analysis; assay type: ADME, organism-based; settings: in vivo, iv
[38] = Biodistribution in male ddY mouse lung administered intravenously and measured at 60 mins postinjection by gamma counter analysis; assay type: ADME, organism-based; settings: in vivo, iv, 1 h
[39] = Biodistribution in male ddY mouse bone administered intravenously and measured at 10 mins postinjection by gamma counter analysis; assay type: ADME, organism-based, Bone element; settings: in vivo, iv
[40] = Biodistribution in male ddY mouse liver administered intravenously and measured at 2 mins postinjection by gamma counter analysis; assay type: ADME, organism-based; settings: in vivo, iv
[41] = Biodistribution in male ddY mouse bone administered intravenously and measured at 2 mins postinjection by gamma counter analysis; assay type: ADME, organism-based, Bone element; settings: in vivo, iv
[42] = Biodistribution in male ddY mouse liver administered intravenously and measured at 10 mins postinjection by gamma counter analysis; assay type: ADME, organism-based; settings: in vivo, iv
[43] = Biodistribution in male ddY mouse blood administered intravenously and measured at 30 mins postinjection by gamma counter analysis; assay type: ADME, organism-based; settings: in vivo, iv, 0.5 h
[44] = Biodistribution in male ddY mouse heart administered intravenously and measured at 60 mins postinjection by gamma counter analysis; assay type: ADME, organism-based; settings: in vivo, iv, 1 h
[45] = target: T1, Orexin/Hypocretin receptor type 1 (Homo sapiens, UniProt O43613); test: Displacement of […]5IBOM from OX1R (unknown origin) transfected in CHO cells assessed as inhibition constant incubated for 1.5 hrs by automated gamma-counter analysis; assay type: cell-based
T1 sequence (O43613 whole entry): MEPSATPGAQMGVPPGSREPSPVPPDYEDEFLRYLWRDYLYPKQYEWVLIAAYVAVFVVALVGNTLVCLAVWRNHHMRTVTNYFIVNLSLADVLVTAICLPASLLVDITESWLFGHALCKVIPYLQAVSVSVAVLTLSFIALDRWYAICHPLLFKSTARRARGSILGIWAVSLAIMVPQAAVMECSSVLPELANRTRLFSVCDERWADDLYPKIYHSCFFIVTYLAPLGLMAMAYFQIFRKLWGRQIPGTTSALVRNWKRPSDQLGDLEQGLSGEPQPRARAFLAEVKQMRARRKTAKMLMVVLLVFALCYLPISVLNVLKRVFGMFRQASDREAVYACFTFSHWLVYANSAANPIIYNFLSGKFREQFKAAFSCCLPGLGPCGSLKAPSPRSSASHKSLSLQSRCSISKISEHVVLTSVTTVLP

[46] = Selectivity ratio of Ki for OX2R (unknown origin) transfected in CHO cells to Ki for OX1R (unknown origin) transfected in CHO cells; assay type: cell-based
Orexin receptor type 2 = target: T2, Orexin receptor type 2 (Homo sapiens, UniProt O43614); test: Displacement of […]5IBOM from OX2R (unknown origin) transfected in CHO cells assessed as inhibition constant incubated for 1.5 hrs by automated gamma-counter analysis; assay type: cell-based
T2 sequence (O43614 whole entry): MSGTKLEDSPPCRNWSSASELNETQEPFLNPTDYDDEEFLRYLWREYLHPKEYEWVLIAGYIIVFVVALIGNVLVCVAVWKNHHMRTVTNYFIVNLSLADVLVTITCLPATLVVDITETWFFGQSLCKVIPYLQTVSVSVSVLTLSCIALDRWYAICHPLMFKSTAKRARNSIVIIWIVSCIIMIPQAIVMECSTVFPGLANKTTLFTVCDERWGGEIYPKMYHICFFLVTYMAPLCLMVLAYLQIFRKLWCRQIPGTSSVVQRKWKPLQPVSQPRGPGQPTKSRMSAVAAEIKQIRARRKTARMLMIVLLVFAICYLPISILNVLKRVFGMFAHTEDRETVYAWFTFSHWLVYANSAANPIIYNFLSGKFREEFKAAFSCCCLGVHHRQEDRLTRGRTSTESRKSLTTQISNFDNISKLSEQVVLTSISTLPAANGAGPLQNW

SMILES: Cc1ccc(-n2nccn2)c(C(=O)N2CCCN(c3nc4cc([18F])ccc4s3)C[C@@H]2C)c1
- Drug uptake [1]: 3.87 % ID/g
- Drug uptake [2]: 2.6 % ID/g
- Drug uptake [3]: 0.39 % ID/g
- Drug uptake [4]: 37.8 % ID/g
- Drug uptake [5]: 4.74 % ID/g
- Drug uptake [6]: 10.2 % ID/g
- Drug uptake [7]: 8.33 % ID/g
- Drug uptake [8]: 11.6 % ID/g
- Drug uptake [9]: 0.15 % ID/g
- Drug uptake [10]: 0.53 % ID/g
- Drug uptake [11]: 0.45 % ID/g
- Drug uptake [12]: 1.58 %ID
- Drug uptake [13]: 0.64 % ID/g
- Drug uptake [14]: 15.3 % ID/g
- Drug uptake [15]: 2.19 % ID/g
- Drug uptake [16]: 9.03 % ID/g
- Drug uptake [17]: 4.12 % ID/g
- Drug uptake [18]: 11.9 % ID/g
- Drug uptake [19]: 4.53 % ID/g
- Drug uptake [20]: 1.49 % ID/g
- Drug uptake [21]: 2.38 %ID
- Drug uptake [22]: 8.75 % ID/g
- Drug uptake [23]: 3.81 % ID/g
- Drug uptake [24]: 4.4 % ID/g
- Drug uptake [25]: 5.68 % ID/g
- Drug uptake [26]: 7.95 % ID/g
- Drug uptake [27]: 1.47 % ID/g
- Drug uptake [28]: 4.17 %ID
- Drug uptake [29]: 1.97 %ID
- Drug uptake [30]: 4.87 % ID/g
- Drug uptake [31]: 1.43 % ID/g
- Drug uptake [32]: 1.64 % ID/g
- Drug uptake [33]: 10.1 % ID/g
- Drug uptake [34]: 25.8 % ID/g
- Drug uptake [35]: 3.5 % ID/g
- Drug uptake [36]: 9.43 % ID/g
- Drug uptake [37]: 4.09 % ID/g
- Drug uptake [38]: 0.7 % ID/g
- Drug uptake [39]: 8.73 % ID/g
- Drug uptake [40]: 17.2 % ID/g
- Drug uptake [41]: 2.51 % ID/g
- Drug uptake [42]: 30.6 % ID/g
- Drug uptake [43]: 2.2 % ID/g
- Drug uptake [44]: 0.7 % ID/g

SMILES: C[C@H]1CN(c2nc3ccc(F)cc3s2)CCCN1C(=O)c1cc(F)ccc1-n1nccn1
- pKi [45]: 8.72
- Ratio Ki [46]: 8.19
- pKi (Orexin receptor type 2): 7.81
